Data published in US20170022258A1, “PEPTIDES FOR USE IN THE TREATMENT OF IL-1 RELATED DISEASES AND CONDITIONS” (C4M PHARMACEUTICALS PTY LTD., priority 2011, published 2017).
Read-outs that look alike come from different tables or passages of the source. Non-standard residues stand in square brackets, D forms with d. Residues, ends and D or L forms follow the SMILES beside them.

Columns and labels:
[1] = test system: IL-1α-induced IL-8 production by HT-29 cells; experiment: IL-1α induced IL-8 production by HT-29 colonic epithelial cells; assay type: cell-based, human; settings: 10 ng/ml IL-1α
Procedure: (§1) Human colon epithelial cell lines HT-29 and Caco2 obtained from the European Collection of Animal Cell Cultures (ECACC) were used in cell cultures. Cells were routinely cultured at 37° C. in an atmosphere of 5% CO2 in 80 cm^2 tissue culture flasks in McCoy's and DMEM medium, respectively, supplemented with penicillin (10 u/ml), streptomycin (10 μg/ml), fungizone (0.5 μg/ml), and 10% (v/v) FCS (referred to as complete medium) until confluent.
(§2) Confluent monolayers were sub-cultured into 6-well plates for experimental protocols. Cells were grown in 6-well plates until confluent. Twenty-four hours prior to the experiment the confluent monolayers were washed and cultured in FCS-free McCoy's medium. Growth arrested cultures were then treated with fresh FCS-free medium and stimulated with vehicle controls or various doses of IL-1α added alone or in combination with other pro-inflammatory cytokines (TNF-α, IFN-γ) in the presence or absence of the peptide of sequence 4 or IL-1 ra, in a dose and time dependent manner.
Supernatants were collected, centrifuged to remove cellular debris and stored at −70° C. until assayed for extracellular inflammatory mediators. Total RNA for RT-PCR was extracted as described above. Cell counting and viability was routinely checked at the beginning and the end of the experiment by phase microscopy and by trypan blue exclusion using representative wells. Mycoplasma tests were performed during the experimental protocol. Production of soluble mediators was assessed by commercially available ELISA in supernatants, RT-PCR in total RNA extractants and nitric oxide, as described in Kolios, G, et al. (1995). Br J Pharmacol, 116, 2866-2872, the contents of which are incorporated herein by reference.
HT 29 and Caco2 colonic epithelial cell lines were stimulated with 10 ng/ml of IL-la in the presence of 100 or 500 ng/ml of the peptide of sequence 4.

[2] = Solubility of peptide under different solvent conditions; assay type: physicochemical; settings: 30 min room temperature
Procedure: 100 mg of each peptide was added to 100 ml total of water plus the solvents, and the solution was gently agitated for 30 min at room temperature.

[3] = test system: IL-1α-induced IL-8 production by Caco2 cells; experiment: IL-1α induced IL-8 production by Caco2 colonic adenocarcinoma cells; assay type: cell-based, human; settings: peptide 100 ng/ml, FIG. 2
Procedure: as §1, §2
Supernatants were collected, centrifuged to remove cellular debris and stored at −70° C. until assayed for extracellular inflammatory mediators. […] Production of soluble mediators was assessed by commercially available ELISA in supernatants, RT-PCR in total RNA extractants and nitric oxide, as described in Kolios, G, et al. (1995). […]

[4] = test system: cancer patients with cachexia; experiment: Treatment of cachexia in cancer patients (case reports); assay type: in vivo, human
Procedure: Patients are typically diagnosed as having cachexia where weight loss of at least 5% in 12 months or less (or BMI<20 kg/m^2), is accompanied by at least three of the following conditions: • Decreased muscle strength • Fatigue • Low fat-free mass index; and • Abnormal blood biochemistry: increased inflammatory markers (CRP, IL-6), anaemia (Hb<12 g/dL) and low serum albumin (<3.2 g/dL)
The peptide was administered by subcutaneous injection every second day for two weeks, in a composition containing the peptide dissolved in 5 ml of a solution comprising water, bicarbonate and either benzyl alcohol or methanol.
The peptide was administered by subcutaneous injection every second day for one month, in a composition containing the peptide dissolved in 5 ml of a solution comprising water, bicarbonate and either benzyl alcohol or methanol
The peptide was administered by subcutaneous injection every second day, in a composition containing the peptide dissolved in 5 ml of a solution comprising water, bicarbonate and either benzyl alcohol or methanol.
The peptide was administered by subcutaneous injection every second day for two months, in a composition containing the peptide dissolved in 5 ml of a solution comprising water, bicarbonate and either benzyl alcohol or methanol.
The peptide was administered by subcutaneous injection every second day for one week, in a composition containing the peptide dissolved in 5 ml of a solution comprising water, bicarbonate and either benzyl alcohol or methanol.
The peptide was administered by subcutaneous injection every second day for one month, in a composition containing the peptide dissolved in 5 ml of a solution comprising water, bicarbonate and either benzyl alcohol or methanol.
The peptide was administered by subcutaneous injection every second day for one month in a composition containing the peptide dissolved in 5 ml of a solution comprising water, bicarbonate and either benzyl alcohol or methanol.

cows = experiment: Testing of peptide 4 in cows for treatment of mastitis; assay type: in vivo, cow; settings: 1 mg, IV
Procedure: The peptides were prepared as compositions containing 1 mg of peptide dissolved in 5 ml of a solution comprising water, bicarbonate and either benzyl alcohol or methanol.

[5] = test system: IL-1 stimulation of IL-8 in human skin fibroblasts; experiment: Inhibition of IL-1 induced IL-8 in human fibroblasts; assay type: cell-based; settings: inhibition of IL-1 stimulation of IL-8 in human skin fibroblasts; average of three measurements and standard error; read-out: Binding (IC50 nM)
[6] = Example 16: breast cancer, 1 mg subcutaneous every second day for one month

## CC(=O)N[C@H](CC(C)C)C(=O)N1CCC[C@@H]1C(=O)N[C@H](CC(C)C)C(=O)N[C@H](C)C(=O)N[C@H](Cc1ccc(O)cc1)C(=O)N1CCC[C@@H]1C(=O)N[C@H](CCC(N)=O)C(=O)N[C@H](Cc1c[nH]c2ccccc12)C(=O)N[C@H](Cc1ccc(O)cc1)C(=O)NCC(=O)N1CCC[C@@H]1C(=O)N[C@@H](C(=O)N[C@H](Cc1c[nH]c2ccccc12)C(=O)N[C@H](CCC(=O)O)C(=O)N[C@H](Cc1ccccc1)C(=O)O)[C@H](C)O [SEQ ID NO. 4, Ac-LPLAYPQWYGPTWEF] (Ac-[dL][dP][dL][dA][dY][dP][dQ][dW][dY]G[dP][dT][dW][dE][dF]-OH; C-terminus assumed)
[1]; peptide 500 ng/ml, IL-1α alone 67.455±0.125, n=6, p<0.01
  IL-1α-induced IL-8 production: 40.705±2.56 ng/ml per 106 cells
[1]; peptide 100 or 500 ng/ml, FIG. 1
  Effect on IL-1α-induced IL-8 production: reduced IL-1α-induced IL-8 production in a concentration dependent manner
[2]; benzyl alcohol (0.1-1%) in water, benzyl alcohol (0.1-1%), 100 mg peptide in 100 ml, read-out: Solubility: Benzyl Alcohol
  solubility at 30 min: > 1000 µg/mL
[2]; hydrochloric acid (0.1-1%) in water, hydrochloric acid (0.1-1%), 100 mg peptide in 100 ml water plus solvent, read-out: Solubility: Acid
  solubility at 30 min: < 1000 µg/mL
[2]; sodium bicarbonate (0.1-1%) in water, sodium bicarbonate (0.1-1%), 100 mg peptide in 100 ml, read-out: Solubility: Base
  solubility at 30 min: < 1000 µg/mL
[3]
  Effect on IL-1α-induced IL-8 secretion: significant decrease
[4]; Example 9: breast cancer, 1 mg subcutaneous every second day for two weeks
  Side effects due to the administration of the peptide: No side effects were noted
[4]; Example 9: breast cancer, 1 mg subcutaneous every second day for two weeks, after 24 hours
  Symptoms of cachexia: cachexia symptoms were alleviated
[4]; Example 10: adrenal adenomas, 1 mg subcutaneous every second day for one month
  Symptoms of cachexia: symptoms of cachexia were alleviated
[4]; Example 11: glioblastoma, 1 mg subcutaneous every second day
  Symptoms of cachexia: symptoms of cachexia were alleviated
[4]; Example 12: brain adenoma, 1 mg subcutaneous every second day for two months, two days after commencement
  Symptoms of cachexia: symptoms of cachexia were alleviated
[4]; Example 13: brain glioma, 1 mg subcutaneous every second day for one week
  Symptoms of cachexia: symptoms of cachexia were alleviated
[4]; Example 14: ovarian cancer, 1 mg subcutaneous every second day for one month
  Symptoms of cachexia: symptoms of cachexia were also alleviated
[4]; Example 15: bone cancer, 1 mg subcutaneous every second day for one month
  Symptoms of cachexia: symptoms of cachexia were alleviated
[4]; [6]
  Symptoms of cachexia: symptoms of cachexia were also alleviated
  Weight put on: 5 kg
[4]; Example 17: breast cancer, 1 mg subcutaneous every second day for two weeks
  Symptoms of cachexia: symptoms of cachexia were alleviated
[4]; Example 18: bladder cancer, 1 mg subcutaneous every second day for one month, after 24 from commencement
  Symptoms of cachexia: symptoms of cachexia were alleviated
[4]; Example 19: colon cancer, 1 mg subcutaneous every second day for one month
  Symptoms of cachexia: symptoms of cachexia were largely alleviated
[4]; Example 20: colon cancer, 1 mg subcutaneous every second day for one month, one month after commencement
  Symptoms of cachexia: symptoms of cachexia had been treated
[4]; Example 21: glioblastoma, 1 mg subcutaneous every second day for one month, two days after commencement
  Symptoms of cachexia: cachexia started to diminish
[4]; Example 22: glioblastoma, 1 mg subcutaneous every second day, after 24 hours
  Symptoms of cachexia: symptoms of cachexia had been alleviated
[4]; Example 23: Hodgkin's lymphoma, 1 mg subcutaneous every second day for one month, after three weeks
  Symptoms of cachexia: symptoms of cachexia were alleviated
[4]; Example 24: colon cancer, 1 mg subcutaneous every second day
  Weight gained: ~5 kg
[4]; Example 24: colon cancer, 1 mg subcutaneous every second day, after two weeks
  Symptoms of cachexia: symptoms of cachexia were alleviated
[4]; Example 25: non-Hodgkin's lymphoma, 1 mg subcutaneous every second day, after 4 days
  Symptoms of cachexia: symptoms of cachexia were alleviated
[4]; Example 26: pancreatic cancer, 1 mg subcutaneous every second day, after 7 days
  Symptoms of cachexia: symptoms of cachexia were alleviated
[4]; Example 27: liposarcoma, 1 mg subcutaneous every second day, after 3 days
  Symptoms of cachexia: symptoms of cachexia were alleviated
[4]; Example 28: liver cancer, 1 mg subcutaneous every second day, after one week
  Symptoms of cachexia: symptoms of cachexia were largely alleviated
cows
  Duration: 72 h
  Effect: Pronounced
[5]
  IC50: 5.9 nM
